Usually inhibition stands for the percentage by which the read-out fell short of the control. What is called half-life is how long it takes for the measured level to halve. What is called solubility is the dissolved amount per volume that the medium holds.

inhibition, half-life and solubility data for two compounds are collected here from patent US9174965B2, “Pyrimidinylpiperidinyloxypyridone analogues as GPR119 modulators” (BRISTOL-MYERS SQUIBB COMPANY, priority 2012, dated 2015).

Data set [1] has as its target L-type calcium channel Cav1.2 (Homo sapiens (Human), UniProt Q13936). Briefly: Patch clamp electrophysiology assay, L-type calcium channel. The data set is classed as cell-based. The following applies: pH 7.35, HEK293, read-out: Ca % Inhibition. How it is done:
(§1) Compound Electrophysiology Assays
(§2) Recombinant ion channels (hERG, sodium [SCN5A], and L-type calcium [Cav1.2]) stably expressed in human embryonic kidney cells (HEK293) are used as test systems, and each system is tested using 2-3 replicates in the conventional patch clamp assay.
(§3) Ion channel membrane current recordings are made with a Multiclamp 700 series integrating patch-clamp amplifier (Axon Instruments, Foster City, Calif.) using the whole-cell variant of the patch-clamp technique.
Cells expressing hERG, sodium [SCN5A], or L-type calcium [Cav1.2] channels are placed in a plexiglass bath chamber, mounted on the stage of an inverted microscope, and perfused continuously with bath solution. […]
L-type calcium currents are elicited by 200 ms step depolarizations applied from a holding potential of −50 mV to a test potential of +30 mV. The voltage steps are applied in 5 second intervals (0.2 Hz) and the peak inward current is recorded. […] The peak inward current is monitored until a new steady-state in the presence of test article is achieved.
Compounds are tested in 3 cells at each concentration in each ion channel assay. […] All currents were recorded at room temperature ˜25° C. IC50 values are calculated using the sigmoidal concentration-response equation Y=A+((B−A)/(1+((C/X)^D))) in XLfit where A and B are the minimum and maximum % inhibition, C is the IC50 and D is the slope factor. […]
(In patch-clamp work, channel activity is measured electrically.)

Data set [2] can be described thus: in vitro. The following applies: human, microsomes, pH 7.4.
Protocol: Metabolic Stability in Liver Microsomes Test
The test compound was received as a 3.5 mM stock solution in 100 percent dimethyl sulfoxide (“DMSO”, Sigma Aldritch). The compound solution was diluted to create a 50 μM acetonitrile (“ACN”, Sigma Aldritch) solution containing 1.4% DMSO, which is then used as a 100-fold stock for incubation with microsomes. The test compound, β-nicotinamide adenine dinucleotide phosphate (“NADPH”, AppliChem Inc.) and liver microsome solutions are combined for incubation in three steps:
1) 450 μl of liver microsome suspension, protein concentration of 1.1 mg/ml in 100 mM sodium (+)/phosphate (“NaPi”, pH 7.4, Sigma Aldritch) buffer, 5 mM magnesium chloride (“MgCl2, Sigma Aldritch) buffer, is pre-warmed at 37° C.;
2) 5 μl of 50 μM test compound (98.6% ACN, 1.4% DMSO) is added to the same tube and pre-incubated at 37° C. for 5 minutes; and
3) The reaction is initiated by the addition of 50 μl of pre-warmed 10 mM NADPH solution in 100 mM NaPi, pH 7.4.
Reaction components are mixed well and then 65 μl are immediately transferred into 130 μl quench/stop solution (zero-time point, T0). The reactions are incubated at 37° C. for 5, 10, 15, 30 and 45 minutes and at each time-point a 65 μl aliquot is transferred into 130 μl of quench solution. ACN containing Internal Standard (100 ng/ml), is used as the quench solution to terminate metabolic reactions. The quenched mixtures are centrifuged at 1500 rpm (˜500×g) in an Allegra X-12 centrifuge, SX4750 rotor (Beckman Coulter Inc., Fullerton, Calif.) for fifteen minutes to pellet denatured microsomes. A volume of 90 μl of supernatant extract, containing the mixture of parent compound and its metabolites, is then transferred to a separate 96-well plate for LC/MS-MS analysis to determine the percent of parent compound that is remaining in the mixture. Peak integration is performed on all samples using the Hepatic Clearance Calculator of QuickCalc by Gubbs, Inc. The percent remaining calculation is performed by comparing the LC-MS/MS peak areas from the samples at each time point to those from the T0 samples for each compound. T1/2 values are calculated from linear regression of the LN (% Remaining) over time, and the slope of that regression (Kel) is used to calculate T1/2, using the following equation: T1/2=−0.693/Kel.
Data set [3] can be described thus: Aqueous solubility assay. The data set is classed as physicochemical. The settings on record: aqueous buffer, thermodynamic from solid; pH 6.5 phosphate buffer, room temperature, 18-24 h. As to the method:
Approximately 0.75 mg of accurately weighed test compound was added to 1 mL of a pH 6.5 phosphate buffer (50 mM Potassium Phosphate Buffer) to make solutions with a nominal targeted concentration of 1 mM. The vial was then rotated on an orbital shaker at room temperature for 18-24 h. After equilibration time had been met, the test solution was centrifuge filtered through a 0.45 um membrane (Millipore Ultrafree Centrifugal Filters, Durapore PVDF 0.45 um). The filtrate was then analyzed by an Agilent HP1100 HPLC/UV at multiple wavelengths using diode array detection (e.g. 210, 230, 254 and 280 nm) against a previously generated calibration curve to determine compound concentration.
Find below in Table 9 data for compared compounds (See WO 2011/127106 A1).

Data set [4] deals with sodium channel SCN5A (Homo sapiens (Human), UniProt Q14524). Briefly: Patch clamp electrophysiology assay, sodium channel. The format is cell-based. The settings on record: pH 7.4, 10 μM, HEK293, read-out: Na % Inhibition. How it is done:
as §1, §2, §3
Cells expressing hERG, sodium [SCN5A], or L-type calcium [Cav1.2] channels are placed in a plexiglass bath chamber, mounted on the stage of an inverted microscope, and perfused continuously with bath solution.
The sodium current bath solution contains (in mM): 70 NaCl, 70 NMDG, 4 KCl, 1.8 CaCl2, 1 MgCl2, 10 glucose, 10 HEPES (pH 7.4, NaOH). The patch pipette filling solution used in sodium experiments contains (in mM): 130 KCl, 1 MgCl2, 1 CaCl2, 5 ATP-K2, 10 EGTA, 10 HEPES (pH 7.2, KOH).
For determining steady state inhibition, sodium currents are elicited every 5 seconds (0.2 Hz) using the following voltage protocol. Cells are held at a potential of −90 mV and stepped to −20 mV for 45 ms. The peak sodium current in response to the depolarizing step to −20 mV is monitored in the control buffer and after application of test article until a new steady state in the presence of the test article is achieved. To assess the rate dependent inhibition of the sodium currents, trains of voltage steps at frequencies of 1 and 4 Hz (30 sweeps each) are applied to the cell prior to application of test article (control) and after steady state inhibition by test article, as determined at 0.2 Hz frequency. The voltage waveform used in the rate dependence experiments is the same as the waveform used for evaluating steady state inhibition at 0.2 Hz stimulation frequency. Rate dependent inhibition is calculated by comparing the 30th voltage sweep in presence of test article to the 30th voltage sweep under control conditions at each frequency tested.
Compounds are tested in 3 cells at each concentration in each ion channel assay. Currents are sampled at rates at least 2 times the low pass filter rate. The flow rate is kept constant throughout the experiments. All currents were recorded at room temperature ˜25° C. IC50 values are calculated using the sigmoidal concentration-response equation Y=A+((B−A)/(1+((C/X)^D))) in XLfit where A and B are the minimum and maximum % inhibition, C is the IC50 and D is the slope factor.
Find below in Table 11 data for compared compounds (See WO 2011/127106 A1).

Values after ≈ are worked out from the molar mass of the structure shown. Like-named read-outs stand apart in the source and are kept apart here.

sodium channel SCN5A, sequence (Q14524 whole entry): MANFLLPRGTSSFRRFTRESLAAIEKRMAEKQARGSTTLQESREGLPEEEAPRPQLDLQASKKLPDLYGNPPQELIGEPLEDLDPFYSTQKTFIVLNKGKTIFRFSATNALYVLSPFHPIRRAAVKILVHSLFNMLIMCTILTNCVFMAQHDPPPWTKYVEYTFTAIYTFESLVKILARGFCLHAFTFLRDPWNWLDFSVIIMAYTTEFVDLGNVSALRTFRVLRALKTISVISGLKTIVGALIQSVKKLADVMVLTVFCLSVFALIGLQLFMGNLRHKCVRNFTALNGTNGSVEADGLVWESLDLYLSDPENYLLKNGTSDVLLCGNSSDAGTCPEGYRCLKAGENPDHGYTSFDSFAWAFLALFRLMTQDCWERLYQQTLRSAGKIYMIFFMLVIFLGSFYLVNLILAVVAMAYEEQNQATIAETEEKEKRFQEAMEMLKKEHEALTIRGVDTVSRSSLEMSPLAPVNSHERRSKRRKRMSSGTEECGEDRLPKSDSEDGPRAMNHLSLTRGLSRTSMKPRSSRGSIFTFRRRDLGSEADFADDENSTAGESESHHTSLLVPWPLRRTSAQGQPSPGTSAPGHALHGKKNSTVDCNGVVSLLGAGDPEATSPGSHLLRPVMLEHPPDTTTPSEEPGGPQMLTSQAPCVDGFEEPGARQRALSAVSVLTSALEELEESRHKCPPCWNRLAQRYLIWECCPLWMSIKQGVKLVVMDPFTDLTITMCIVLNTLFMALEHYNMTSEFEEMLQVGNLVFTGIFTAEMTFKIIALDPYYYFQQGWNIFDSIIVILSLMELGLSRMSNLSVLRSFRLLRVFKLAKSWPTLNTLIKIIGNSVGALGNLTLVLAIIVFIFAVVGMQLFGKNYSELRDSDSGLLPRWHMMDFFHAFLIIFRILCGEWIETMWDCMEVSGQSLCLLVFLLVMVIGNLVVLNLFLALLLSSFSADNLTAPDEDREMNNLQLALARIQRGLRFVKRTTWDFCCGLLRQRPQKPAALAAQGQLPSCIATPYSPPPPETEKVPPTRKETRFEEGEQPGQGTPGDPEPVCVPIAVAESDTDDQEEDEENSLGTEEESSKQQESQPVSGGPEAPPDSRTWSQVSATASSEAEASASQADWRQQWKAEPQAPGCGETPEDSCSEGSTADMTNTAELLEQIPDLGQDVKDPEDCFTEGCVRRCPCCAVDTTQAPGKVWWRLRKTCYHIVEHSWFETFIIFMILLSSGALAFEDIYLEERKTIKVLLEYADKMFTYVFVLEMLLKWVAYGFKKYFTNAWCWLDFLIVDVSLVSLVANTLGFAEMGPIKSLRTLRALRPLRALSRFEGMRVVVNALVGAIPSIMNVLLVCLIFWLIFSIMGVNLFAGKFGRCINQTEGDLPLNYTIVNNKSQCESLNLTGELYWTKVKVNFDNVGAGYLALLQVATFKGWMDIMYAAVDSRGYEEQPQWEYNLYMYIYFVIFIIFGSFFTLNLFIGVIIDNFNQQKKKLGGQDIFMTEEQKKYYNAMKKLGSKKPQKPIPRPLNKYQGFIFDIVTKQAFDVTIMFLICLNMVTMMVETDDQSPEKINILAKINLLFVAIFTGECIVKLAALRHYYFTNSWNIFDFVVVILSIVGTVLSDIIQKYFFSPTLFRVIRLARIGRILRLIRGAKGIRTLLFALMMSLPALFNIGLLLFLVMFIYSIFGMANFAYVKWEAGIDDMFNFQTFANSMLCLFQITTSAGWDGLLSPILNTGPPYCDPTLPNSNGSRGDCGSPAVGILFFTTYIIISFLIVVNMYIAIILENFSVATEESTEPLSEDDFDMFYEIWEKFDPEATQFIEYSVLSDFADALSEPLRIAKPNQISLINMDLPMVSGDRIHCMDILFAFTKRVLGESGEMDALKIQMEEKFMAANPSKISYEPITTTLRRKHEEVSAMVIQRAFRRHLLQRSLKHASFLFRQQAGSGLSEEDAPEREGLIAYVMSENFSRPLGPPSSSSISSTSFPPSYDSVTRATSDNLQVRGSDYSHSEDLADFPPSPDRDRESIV

For the compound `Cc1nc(-n2cc(Cl)c(OC3CCN(c4ncc(Cl)cn4)CC3)cc2=O)ccc1N1CC[C@@H](O)C1=O` [Example 4, (R)-5-chloro-4-((1-(5-chloropyrimidin-2-yl)piperidin-4-yl)oxy)-5′-(3-hydroxy-2-oxopyrrolidin-1-yl)-6′-methyl-2H-[1,2′-bipyridin]-2-one], the inhibition at 10 µM in data set [1] was found to be 7%; in data set [4] (human, 1 Hz), 6%; in data set [4] (human, 4 Hz) it was 7%; in data set [4] (1 Hz) it was 6%; in data set [4] (4 Hz) it was 7%. This compound also showed a half-life at 0.5 µM in data set [2] of 1.62 h. Moreover, the solubility in data set [3] is 2 µg/mL (≈ 3.76 µM).

On to `Cc1nc(-n2cc(Cl)c(OC3CCN(c4ncc(Cl)cn4)CC3)cc2=O)ccc1N1CC[C@H](O)C1=O` [Example 3, (S)-5-chloro-4-((1-(5-chloropyrimidin-2-yl)piperidin-4-yl)oxy)-5′-(3-hydroxy-2-oxopyrrolidin-1-yl)-6′-methyl-2H-[1,2′-bipyridin]-2-one], for which the figures for the inhibition at 10 µM in data set [1], in data set [4] (1 Hz) and in data set [4] (4 Hz) were 9%, 14% and 23%, respectively. The compound also yielded a half-life at 0.5 µM in data set [2] of 1.3 h. Moreover, the solubility in data set [3] came to 1 µg/mL (≈ 1.88 µM).
